Experimental data taken from BigSolDB 2.1.

Settings: in ethyl acetate

CCCCCOC(=O)Nc1nc(=O)n([C@@H]2O[C@H](C)[C@@H](O)[C@H]2O)cc1F
Settings | solubility (mole fraction)
278.15 K | 0.003
283.15 K | 0.0039
288.15 K | 0.0052
293.15 K | 0.00678
298.15 K | 0.00919
303.15 K | 0.0112
308.15 K | 0.0149
313.15 K | 0.019
318.15 K | 0.0237
323.15 K | 0.0301
